The values that follow come from ChEMBL document CHEMBL4428048, “Discovery of Novel Polo-Like Kinase 1 Polo-Box Domain Inhibitors to Induce Mitotic Arrest in Tumor Cells” (J Med Chem, 2016).

Test [1] has as its system RKO. Put plainly: Growth inhibition of human RKO cells at 50 uM after 72 hrs by MTT assay relative to control. In kind it is functional. Conditions: read-out: GI. (Tetrazolium dyes change colour on reduction, which living cells bring about.)
Test [2] has as its system HeLa. Description: Induction of mitotic arrest in human HeLa cells assessed as increase in level of 4N DNA cells at 40 uM after 24 hrs by propidium iodide staining-based FACS analysis. In kind it is functional, cell-based. In general terms: In flow cytometry, cells or beads pass a laser one at a time.
For test [3], the system named is HeLa. Put plainly: Growth inhibition of human HeLa cells at 50 uM after 72 hrs by MTT assay relative to control. In kind it is functional. The note with it: read-out: GI.
For test [4], the system named is HeLa. Put plainly: Induction of mitotic arrest in human HeLa cells assessed as increase in level of 4N DNA cells after 24 hrs by propidium iodide staining-based FACS analysis. The test is classed as functional, cell-based.
Test [5] concerns HeLa. Description: Induction of mitotic arrest in human HeLa cells assessed as increase in level of 4N DNA cells at 10 uM after 24 hrs by propidium iodide staining-based FACS analysis. The test is classed as functional, cell-based.
Test [6] concerns HeLa. Description: cells. Conditions: Homo sapiens, 72 h.
Description: Growth inhibition of human HeLa cells after 72 hrs by MTT assay
For test [7], the system named is U2OS. Put plainly: Growth inhibition of human U2OS cells at 50 uM after 72 hrs by MTT assay relative to control. In kind it is functional. Conditions: read-out: GI.
In test [8] the test system is HeLa. Description: Induction of mitotic arrest in human HeLa cells assessed as increase in level of 4N DNA cells at 30 uM after 24 hrs by propidium iodide staining-based FACS analysis. The test is classed as functional, cell-based.
Test [9] has as its target Serine/threonine-protein kinase PLK2 (Homo sapiens, UniProt Q9NYY3). Description: Binding affinity to GST-tagged PLK2 PBD (355 to 685 residues) (unknown origin) by NT-647 dye-based microscale thermophoresis analysis.
For test [10], the system named is RKO. Put plainly: cells. Conditions: Homo sapiens, 72 h.
Description: Growth inhibition of human RKO cells after 72 hrs by MTT assay
Test [11] relates to HeLa. Put plainly: Induction of mitotic arrest in human HeLa cells by propidium iodide staining-based FACS analysis. In kind it is functional, cell-based.
The test system of test [12] is U2OS. Description: cells. Conditions: Homo sapiens, 72 h.
Description: Growth inhibition of human U2OS cells after 72 hrs by MTT assay
Test [13] deals with HeLa. Description: Induction of mitotic arrest in human HeLa cells assessed as increase in level of 4N DNA cells at 5 uM after 24 hrs by propidium iodide staining-based FACS analysis. The test is classed as functional, cell-based.
In test [14] the test system is U2OS. Put plainly: Growth inhibition of human U2OS cells at 20 uM after 72 hrs by MTT assay relative to control. The test is classed as functional. Conditions: read-out: GI.
In test [15] the test system is RKO. Put plainly: Growth inhibition of human RKO cells at 20 uM after 72 hrs by MTT assay relative to control. The test is classed as functional. Conditions: read-out: GI.
Test [16] has as its system HeLa. Description: Induction of mitotic arrest in human HeLa cells assessed as 4N DNA cells at 100 uM after 24 hrs by propidium iodide staining-based FACS analysis relative to control. In kind it is functional.
Test [17] concerns U2OS. Description: Growth inhibition of human U2OS cells at 100 uM after 72 hrs by MTT assay relative to control. In kind it is functional. Conditions: read-out: GI.
The test system of test [18] is HeLa. Description: Growth inhibition of human HeLa cells at 100 uM after 72 hrs by MTT assay relative to control. The test is classed as functional. The note with it: read-out: GI.
Test [19] has as its system RKO. Put plainly: Growth inhibition of human RKO cells at 100 uM after 72 hrs by MTT assay relative to control. In kind it is functional. The note with it: read-out: GI.
Test [20] addresses Serine/threonine-protein kinase PLK1 (Homo sapiens, UniProt P53350). Description: Binding affinity to GST-tagged PLK1 PBD (327 to 603 residues) (unknown origin) by NT-647 dye-based microscale thermophoresis analysis. In general terms: In MST a laser heats a spot of the sample, and binding alters the fluorescence response.
Test [21] concerns the target Serine/threonine-protein kinase PLK1 (Homo sapiens, UniProt P53350, W414A). Description: Binding affinity to GST-tagged PLK1 PBD W414A mutant (unknown origin) by NT-647 dye-based microscale thermophoresis analysis.

As usually defined, the EC50 is the concentration needed to bring the measured effect to its halfway point. By Kd is commonly meant the free concentration of one partner at which half of the binding sites on the other are occupied at equilibrium, for simple one-to-one binding. Read a high Kd as lower affinity.

Structures are written as SMILES. Activity calls are given as the source filed them. No cut-off for these calls is given here.

Sequence of Serine/threonine-protein kinase PLK2 (Q9NYY3 whole entry, the tested form may be a part): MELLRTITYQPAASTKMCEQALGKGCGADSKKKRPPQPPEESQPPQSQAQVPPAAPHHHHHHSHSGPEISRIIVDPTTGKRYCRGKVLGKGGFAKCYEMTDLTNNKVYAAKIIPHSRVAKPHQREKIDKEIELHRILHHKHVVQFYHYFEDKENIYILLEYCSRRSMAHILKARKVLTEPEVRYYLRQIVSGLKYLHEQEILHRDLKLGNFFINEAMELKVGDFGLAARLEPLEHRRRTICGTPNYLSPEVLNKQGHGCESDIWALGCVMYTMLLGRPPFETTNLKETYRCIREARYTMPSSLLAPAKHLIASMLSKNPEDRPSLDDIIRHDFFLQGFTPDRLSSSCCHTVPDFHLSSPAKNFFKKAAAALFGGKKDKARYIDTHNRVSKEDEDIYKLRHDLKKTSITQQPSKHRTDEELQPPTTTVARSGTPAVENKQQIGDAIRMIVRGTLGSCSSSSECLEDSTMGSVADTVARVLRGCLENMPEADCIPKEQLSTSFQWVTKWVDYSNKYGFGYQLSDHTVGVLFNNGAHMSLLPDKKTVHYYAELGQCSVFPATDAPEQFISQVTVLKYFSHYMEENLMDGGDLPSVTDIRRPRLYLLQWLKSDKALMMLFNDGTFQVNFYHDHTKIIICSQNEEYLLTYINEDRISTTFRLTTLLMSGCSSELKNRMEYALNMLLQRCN
Sequence of Serine/threonine-protein kinase PLK1 (Homo sapiens, UniProt P53350) (P53350 whole entry, the tested form may be a part): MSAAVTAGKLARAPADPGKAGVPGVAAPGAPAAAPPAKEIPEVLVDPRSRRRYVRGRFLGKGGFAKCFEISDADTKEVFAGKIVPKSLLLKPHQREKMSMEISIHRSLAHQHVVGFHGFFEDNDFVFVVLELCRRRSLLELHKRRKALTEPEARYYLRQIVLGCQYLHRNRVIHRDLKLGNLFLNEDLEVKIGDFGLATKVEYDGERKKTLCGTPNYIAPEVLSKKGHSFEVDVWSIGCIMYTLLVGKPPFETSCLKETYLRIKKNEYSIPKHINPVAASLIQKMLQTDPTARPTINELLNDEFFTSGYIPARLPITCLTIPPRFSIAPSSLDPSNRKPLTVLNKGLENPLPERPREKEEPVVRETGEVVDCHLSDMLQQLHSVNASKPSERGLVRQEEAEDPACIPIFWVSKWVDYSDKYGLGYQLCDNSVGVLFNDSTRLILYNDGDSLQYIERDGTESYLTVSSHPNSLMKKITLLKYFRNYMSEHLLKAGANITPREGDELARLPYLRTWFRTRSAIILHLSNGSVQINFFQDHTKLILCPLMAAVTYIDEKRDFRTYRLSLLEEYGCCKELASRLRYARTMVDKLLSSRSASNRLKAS
Sequence of Serine/threonine-protein kinase PLK1 (Homo sapiens, UniProt P53350, W414A) (P53350 2-603 W414A limits assumed): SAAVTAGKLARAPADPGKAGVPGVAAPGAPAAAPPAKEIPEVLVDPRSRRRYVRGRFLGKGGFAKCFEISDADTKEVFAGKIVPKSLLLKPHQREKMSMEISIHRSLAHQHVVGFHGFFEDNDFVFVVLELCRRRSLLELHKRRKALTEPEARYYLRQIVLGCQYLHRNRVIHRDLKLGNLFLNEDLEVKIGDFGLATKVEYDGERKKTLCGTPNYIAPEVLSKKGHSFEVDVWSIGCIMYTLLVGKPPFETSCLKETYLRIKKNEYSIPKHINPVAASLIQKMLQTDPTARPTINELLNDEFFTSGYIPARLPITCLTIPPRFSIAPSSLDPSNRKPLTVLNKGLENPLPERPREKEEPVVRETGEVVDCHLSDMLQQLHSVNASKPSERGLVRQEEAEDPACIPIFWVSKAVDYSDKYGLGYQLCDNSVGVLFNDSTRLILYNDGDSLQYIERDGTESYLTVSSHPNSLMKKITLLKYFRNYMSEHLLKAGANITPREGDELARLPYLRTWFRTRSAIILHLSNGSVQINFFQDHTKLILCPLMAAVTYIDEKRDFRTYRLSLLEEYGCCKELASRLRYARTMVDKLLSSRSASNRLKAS

Consider `CCCc1oc2ccc(NS(=O)(=O)c3cccs3)cc2c1C(=O)OCC`, for which the inhibition of growth at 50 µM in the test with RKO [1] worked out at 39.4%; in the test with HeLa [3], 31.8%. Also, the outcome in the test on HeLa [2] was Active. Also, in the test on HeLa [4], the EC50 is 44.8 µM.

Consider `CCn1c2ccccc2c2cc(/C=N/NC(=O)c3ccccc3[N+](=O)[O-])ccc21`, for which the outcome in the test on HeLa [5] was Active. Further, the inhibition of growth at 50 µM with RKO [1] is 43%; with U2OS [7] it was 41.7%. The half-maximal effective concentration (EC50) with HeLa [6] stood at 15 µM; with HeLa [4] it was 5.3 µM.

In the case of `O=C(CCn1c2ccccc2c2ccccc21)N/N=C/c1cc(Cl)cc(Cl)c1`, the outcome in the test on HeLa [8] was Active. Further, the inhibition of growth at 50 µM in the test with HeLa [3] amounted to 45.7%; with U2OS [7], 48.8%. The compound also yielded a Kd in test [9] of 210 µM. Moreover, the EC50 in the test on HeLa [4] is 20.4 µM; with RKO [10], 19.2 µM.

The compound `CC1=C/C(=N/OC(=O)c2ccccc2C)C(C)=CC1=O` returned an EC50 in the test on HeLa [11] of 15 µM.

In the case of `CCN(CC)c1ccc(NC(=O)/C=C/c2cccc3ccccc23)cc1`, the result in the test on HeLa [8] was Active. Besides, the inhibition of growth at 50 µM with RKO [1] was 34%; in the test with HeLa [3], 31.2%. In the test on U2OS [12], this compound showed an EC50 of 18.1 µM.

On to `Cc1ccc(/C(=N/S(=O)(=O)c2ccccc2)NC(=S)Nc2ccc([N+](=O)[O-])cc2)cc1`, for which the outcome in the test with HeLa [8] was Active. In addition, the equilibrium dissociation constant (Kd) in [9] came to 159 µM. Moreover, in the test with HeLa [4], the Activity entry is “Dose-dependent effect” and the EC50 stood at 21.1 µM.

Turning to `O=C(N/N=C/c1ccc(Br)cc1)c1n[nH]c2c1CCCC2`, the outcome in the test with HeLa [13] was Active. Further, the figures for the inhibition of growth at 20 µM with U2OS [14] and with RKO [15] were 59.8% and 37%, respectively. This compound also had an EC50 in the test with HeLa [6] of 2.6 µM.

As to `CCn1c2ccccc2c2cc(/C=N/NC(=O)c3cccc(Cl)c3)ccc21`, in the test with HeLa [5], the result was Active. Moreover, the EC50 came out at 15.6 µM in the test on HeLa [6], 4.4 µM with HeLa [4] and 10 µM in the test on RKO [10]. Further, the inhibition of growth at 50 µM with U2OS [7] came out at 42.2%.

Consider `CCc1ccc(/C=N/NC(=O)c2sc3cc(Cl)ccc3c2Cl)s1`, for which the result in the test on HeLa [8] was Active. For the same compound, the EC50 in the test with HeLa [4] stood at 8.6 µM.

The compound `CC1=CC(=O)C(C(C)C)=C/C1=N/OC(=O)c1ccccc1C` gave a Kd in [9] of 87.3 µM. In addition, the Activity in the test on HeLa [16] turned out to be 36%.

On to `Cc1ccc2nc(C)cc(SCC(=O)N/N=C/c3ccc(Cl)cc3)c2c1`, for which, in the test on HeLa [8], the result was Active. For the same compound, the inhibition of growth at 100 µM amounted to 25.5% with U2OS [17], 36.7% in the test on HeLa [18] and 34% in the test on RKO [19]. In addition, in the test with HeLa [4], the half-maximal effective concentration (EC50) turned out to be 18.7 µM.

`Cc1ccccc1OCC(=O)N/N=C/c1ccc2c(c1)OCCO2`: in the test with HeLa [8], the result was Active. For the same compound, the equilibrium dissociation constant (Kd) was 44.2 µM in test [20], 197 µM in [9] and 412 µM in test [21]. Further, the inhibition of growth at 100 µM with HeLa [18] was 40.2%; in the test with RKO [19], 35.3%. The EC50 amounted to 25.6 µM with HeLa [4] and 37.8 µM with U2OS [12].
